According to patent publication US20040102362A1, “Protocol for paracentesis” (priority 2000, published 2004):
Positions of bridges follow the written chain, without caps; N, C: chain ends. Residues, ends and D or L forms follow the SMILES beside them.

System: cirrhotic patients with tense ascites
Settings: human, in vivo
Procedure: Patient selection criteria: 24 clinically stable cirrhotic patients with tense ascites in need of therapeutic paracentesis were recruited to the study.
Treatment: Both groups received therapeutic paracentesis according to the usual protocol of the study centre. […] Plasma renin and aldosterone levels were measured as markers of blood volume. Certain other parameters were determined as secondary criteria for successful treatment.

Creatininaemia: 72 ± 8 | Natraemia: 133 ± 1 mmol/L
SMILES: NCCCC[C@H](NC(=O)[C@@H]1CCCN1C(=O)[C@@H]1CSSC[C@H](NC(=O)CNC(=O)CNC(=O)CN)C(=O)N[C@@H](Cc2ccc(O)cc2)C(=O)N[C@@H](Cc2ccccc2)C(=O)N[C@@H](CCC(N)=O)C(=O)N[C@@H](CC(N)=O)C(=O)N1)C(=O)NCC(N)=O [Terlipressin] (H-GGGCYFQNCPKG-NH2; disulfide 4-9)
